Laboratory results: patent US20180360856A1, “ANTI-BACTERIAL COMPOUNDS” (Auspherix Limited, priority 2015, published 2018)

Columns and labels:
[1] = tested on: human hepatocyte cell line (HepG2); details: 24 h
Procedure: Cell counting kit-8 (Sigma, CCK-8) assays were performed to assess the effect of compounds on cell viability. The assay is based on the reduction of a water-soluble tetrazolium salt (WST-8) by cellular dehydrogenases to a formazan dye which can be detected spectroscopically. 96-well plates were seeded with the human hepatocyte cell line (HepG2) at approximately 8×10^3 cells per well in Eagle's Minimum Essential Medium (EMEM) with Earle's salts and sodium bicarbonate supplemented with 10% heat-inactivated foetal bovine serum 2 mM glutamine and 1% non-essential amino acids (NEAA). The following day serial dilutions of compounds (dissolved and diluted in DMSO) were added to the cells in duplicates. Control wells included an ‘untreated’ control where cells were grown in the presence of 1% DMSO and a ‘medium only’ control (plus 1% DMSO). After 24 hours CCK-8 reagent (10 μl) was added to each well and cell viability was assessed by measuring the absorbance at a wavelength of 450 nm after 2-3h hours. Only living cells can reduce the tetrazolium salts into coloured formazan products. Results were expressed as 50% growth inhibition (TD50) values compared to ‘untreated’ control.

Gram negative bacteria = details: cited from earlier work
Klebsiella pneumoniae = assay: Growth assay variation, Klebsiella pneumoniae (MIC); assay type: cell-based; details: Luria broth, incubation without shaking
Procedure: (§1) Stock solution of the test compounds (20 mg/ml) in dimethyl sulfoxide (DMSO) were serially diluted in DMSO and each diluted compound added in duplicate to a 96-well plate to a final DMSO concentration of 2% (v/v). An overnight culture of S. aureus (Oxford strain) grown in tryptic soy broth (TSB) was diluted to approximately 5×10^7 cfu/ml and 150 μl of this sample was added to each well of the 96-well plates. Control wells included an ‘untreated’ control with bacteria in TSB in the presence of 2% DMSO and a negative sample (containing 150p1 TSB growth media in the presence of 2% DMSO). Plates were incubated in a shaking incubator at 37° C. for 22-24 hours and bacterial growth assessed by absorbance at a wavelength of 595 nm. The minimum inhibitory concentration (MIC) was defined as the lowest concentration of compound that inhibited growth compared to the no-treatment control.
(§2) Klebsiella pneumoniae, Acinetobacter baumannnii or E.coli (ATCC 25922): use of 1/100 overnight dilution to set up assay, medium used: Luria broth (LB); incubation without shaking.

E.coli (ATCC 25922) = assay: Growth assay variation, E. coli (MIC); assay type: cell-based; details: ATCC 25922, Luria broth, incubation without shaking
Procedure: as §1, §2

[2] = tested on: S. aureus (Oxford strain); assay: Growth assay for S. aureus (MIC); assay type: cell-based; details: TSB, 37° C., 22-24 hours
Procedure: as §1

[3] = tested on: P.aeruginosa (ATCC 27853); assay: Growth assay variation, P. aeruginosa (MIC); assay type: cell-based; details: ATCC 27853, CaMHB, incubation without shaking
Procedure: as §1
P.aeruginosa (ATCC 27853): use of 1/100 overnight dilution to set up assay, medium used: Cation adjusted Mueller Hinton broth (CaMHB); incubation without shaking.

With C[P](C)(C)=[Au][S]C1CCC(F)(F)CC1 [Compound 35] the “HepG2 cell TD50” value [1] was 4 µg/mL.

For C[P](C)(C)=[Au][S]c1cccc(C(=O)O)c1 [Compound 25], the “HepG2 cell TD50” value [1] was 22 µg/mL.

With C[P]1(=[Au][S]c2nnn[nH]2)CCCC1 [Compound 32] the “HepG2 cell TD50” value [1] was 11 µg/mL.

In the case of CNC(=O)C[S][Au]=[P](C)(C)C [Compound 2], the “HepG2 cell TD50” value [1] is reported as 6 µg/mL.

With C[P](C)(C)=[Au][S]c1ccc(S(C)(=O)=O)cc1 [Compound 11] the “HepG2 cell TD50” value [1] was 2 µg/mL.

For C[P]1(=[Au][S]c2nnn[nH]2)CCCCC1 [Compound 31], the “HepG2 cell TD50” value [1] was 45 µg/mL.

With COc1ccc([S][Au]=[P](C)(C)C)cc1 [Compound 17] the “HepG2 cell TD50” value [1] was 3.5 µg/mL.

For C[P](C)(C)=[Au][S]c1cc(C(F)(F)F)ccn1 [Compound 14], the “HepG2 cell TD50” value [1] was 3 µg/mL.

For C[P](C)(C)=[Au][S]c1ccccc1C(=O)O [Compound 6], the “HepG2 cell TD50” value [1] was 11.5 µg/mL.

In the case of CC[P](CC)(CC)=[Au][S][C@@H]1O[C@H](COC(C)=O)[C@@H](OC(C)=O)[C@H](OC(C)=O)[C@H]1OC(C)=O [Auranofin], the “activity against the majority of Gram negative bacteria” value (Gram negative bacteria) is listed as “not been shown to have any significant activity”.

With C[P](C)(C)=[Au][S]c1nnn[nH]1 [Compound 15] the “HepG2 cell TD50” value [1] was 23 µg/mL.

With CC(=O)Oc1ccc([S][Au]=[P](C)(C)C)cc1OC(C)=O [Compound 23] the “HepG2 cell TD50” value [1] was 2 µg/mL.

In the case of Cc1nnc([S][Au]=[P](C)(C)C)n1C [Compound 1], the “HepG2 cell TD50” value [1] is reported as 2 µg/mL.

With C[P]1(=[Au][S]c2ccccc2C(=O)O)CCCCC1 [Compound 27] the “HepG2 cell TD50” value [1] was 22 µg/mL.

With CC[P](C)(C)=[Au][S]c1ncco1 [Compound 12] the “HepG2 cell TD50” value [1] was 5 µg/mL.

For COc1cccc([S][Au]=[P](C)(C)C)c1 [Compound 10], the “HepG2 cell TD50” value [1] was 2 µg/mL.

For COc1ccc([S][Au]=[P](C)(C)C)cc1OC [Compound 5], the “HepG2 cell TD50” value [1] was 3 µg/mL.

For C[P]1(=[Au][S]c2ccccc2C(=O)O)CCOCC1 [Compound 29], the “HepG2 cell TD50” value [1] was 35 µg/mL.

For C[P](C)(C)=[Au][S]c1cccc(C(F)(F)F)c1 [Compound 8], the “HepG2 cell TD50” value [1] was 3 µg/mL.

In the case of “Dimethyl[2-(methyl)thiazole]phosphine gold(I) chloride [Compound I-49]”, the “K. pneumoniae MIC” value (Klebsiella pneumoniae) is reported as 12.5 to 25 µg/mL, the “E. coli MIC” value (E.coli (ATCC 25922)) is reported as 6.3 to 12.5 µg/mL and the “S. aureus MIC” value [2] is reported as ≤0.8 to 1.6 µg/mL. For the same compound, the “P. aeruginosa MIC” value [3] was 25 µg/mL.

In the case of “Dimethyl[2-(methyl)oxazole]phosphine gold(I) chloride [Compound I-50]”, the “K. pneumoniae MIC” value (Klebsiella pneumoniae) is reported as 12.5 to 25 µg/mL, the “E. coli MIC” value (E.coli (ATCC 25922)) is reported as 6.3 to 12.5 µg/mL and the “S. aureus MIC” value [2] is reported as 1.6 to 3.1 µg/mL. The “P. aeruginosa MIC” value [3] was 12.5 to 25 µg/mL.

For C[P](C)(C)=[Au][S]c1ccc(C(F)(F)F)cn1 [Compound 13], the “HepG2 cell TD50” value [1] was 2.5 µg/mL.

With C[P](C)(C)=[Au][S]c1ccc(C(N)=O)cn1 [Compound 16] the “HepG2 cell TD50” value [1] was 17 µg/mL.

For C[P](C)(C)=[Au][S]c1ncco1 [Compound 4], the “HepG2 cell TD50” value [1] was 4 µg/mL.

For CP1CCS(=O)(=O)CC1.[Cl][Au] [Compound I-44, 4-Methyl-[1,4]sulfonylphosphinane gold(I) chloride], the “K. pneumoniae MIC” value (Klebsiella pneumoniae) was 50 to 100 µg/mL, the “E. coli MIC” value (E.coli (ATCC 25922)) was 25 to 100 µg/mL and the “S. aureus MIC” value [2] was 6.3 to 25 µg/mL. For the same compound, the “P. aeruginosa MIC” value [3] was 6.3 to 50 µg/mL.

In the case of Cn1nnnc1C[S][Au]=[P](C)(C)C [Compound 33], the “HepG2 cell TD50” value [1] is reported as 4 µg/mL.

With CCOC(=O)CNC(=O)[C@H](C[S][Au]=[P](C)(C)C)NC(=O)CC[C@H](NC(C)=O)C(=O)OCC [Compound 3] the “HepG2 cell TD50” value [1] was 32 µg/mL.

For C[P](C)(C)=[Au][S]c1ccccc1C(F)(F)F [Compound 9], the “HepG2 cell TD50” value [1] was 3 µg/mL.

In the case of CC[P](C)(C)=[Au][S]c1ccccc1C(=O)O [Compound 36], the “S. aureus MIC” value [2] is reported as <0/8.

In the case of C[P](C)(C)=[Au][S]c1cccc(S(C)(=O)=O)c1 [Compound 34], the “HepG2 cell TD50” value [1] is reported as 1 µg/mL.

For C[P]1(=[Au][S]c2ccccc2C(=O)O)CCCC1 [Compound 28], the “HepG2 cell TD50” value [1] was 11 µg/mL.

With C[P](C)(C)=[Au][S]c1ccc(F)cc1C(=O)O [Compound 18] the “HepG2 cell TD50” value [1] was 18 µg/mL.

In the case of C[P]1(=[Au][S]c2ccc(F)cc2C(=O)O)CCCCC1 [Compound 30], the “HepG2 cell TD50” value [1] is reported as 19 µg/mL.

With C[P](C)(C)=[Au][S]c1ncc[nH]1 [Compound 7] the “HepG2 cell TD50” value [1] was 6 µg/mL.

For C[P](C)(C)=[Au][S]c1ccc(C(=O)O)cc1 [Compound 26], the “HepG2 cell TD50” value [1] was 13 µg/mL.
